This is an account of results in PubChem BioAssay AID330 (DTP/NCI, 2004).

The structures appear in SMILES notation. “And” between values parts separate entries of the source, which are not always exact repeats. Equal entries are not always repeated. Inconclusive results and toxic doses are left out.

The subject of this assay is P388 leukemia ip, CD2F1 mice, survival T/C. As to the kind of experiment: NCI In Vivo Anticancer Drug Screen. Data for tumor model P388 Leukemia (intraperitoneal) in CD2F1 (CDF1) mice. The note with it: endpoint: median survival time, higher = longer survival. A digest of the protocol:
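Mice carrying the transplanted tumor received test compound or vehicle. Survival was recorded in each group, and the value is the treated-group measurement divided by that of the vehicle-treated control group.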

The mark [1] stands for this setting: dose: 12.5 mg/kg/injection, schedule: Q04DX002 (ip), vehicle: Klucel (hydroxypropylcellulose) (HPC).
[2] abbreviates: dose: 25.0 mg/kg/injection, schedule: Q04DX002 (ip), vehicle: Klucel (hydroxypropylcellulose) (HPC).
Setting [3] is: dose: 100.0 mg/kg/injection, schedule: Q04DX003 (ip), vehicle: saline with Tween-80.
Where [4] appears, read: dose: 200.0 mg/kg/injection, schedule: Q04DX003 (ip), vehicle: saline with Tween-80.
The mark [5] stands for this setting: dose: 60.0 mg/kg/injection, schedule: Q01DX005 (ip), vehicle: saline with Tween-80.
[6] abbreviates: dose: 120.0 mg/kg/injection, schedule: Q01DX005 (ip), vehicle: saline with Tween-80.
The mark [7] stands for this setting: dose: 240.0 mg/kg/injection, schedule: Q01DX005 (ip), vehicle: saline with Tween-80.
Setting [8] is: dose: 60.0 mg/kg/injection, schedule: Q01DX005 (ip), vehicle: Klucel (hydroxypropylcellulose) (HPC).
The mark [9] stands for this setting: dose: 120.0 mg/kg/injection, schedule: Q01DX005 (ip), vehicle: Klucel (hydroxypropylcellulose) (HPC).
Where [10] appears, read: dose: 240.0 mg/kg/injection, schedule: Q01DX005 (ip), vehicle: Klucel (hydroxypropylcellulose) (HPC).
[11] abbreviates: dose: 100.0 mg/kg/injection, schedule: Q01DX001 (ip), vehicle: Klucel (hydroxypropylcellulose) (HPC).
Setting [12] is: dose: 200.0 mg/kg/injection, schedule: Q01DX001 (ip), vehicle: Klucel (hydroxypropylcellulose) (HPC).

In the case of `NCCSSc1ccc([N+](=O)[O-])cc1`, the T/C was 95 % of control under setting [1] and 86 % of control under setting [2].

As to `COc1cc(C(=O)CO)cc(OC)c1OC(C)=O`, the T/C is 104 % of control and 105 % of control under setting [3]; 116 % of control under setting [4].

With `CS(=O)(=O)N(CC(=O)O)Cc1ccc(Cl)c(Cl)c1`, the T/C by setting is: (dose: 25.0 mg/kg/injection, schedule: Q04DX003 (ip), vehicle: Klucel + Tween-80) 92 % of control; (dose: 50.0 mg/kg/injection, schedule: Q04DX003 (ip), vehicle: Klucel + Tween-80) 100 % of control; (dose: 100.0 mg/kg/injection, schedule: Q04DX003 (ip), vehicle: Klucel + Tween-80) 98 % of control; (dose: 200.0 mg/kg/injection, schedule: Q04DX003 (ip), vehicle: Klucel + Tween-80) 91 % of control.

Consider `COC1=C(OC)C(=O)C2=C(OCCCCO2)C1=O`, for which the T/C (dose: 15.0 mg/kg/injection, schedule: Q01DX005 (ip), vehicle: saline with Tween-80) was 104 % of control; the T/C (dose: 30.0 mg/kg/injection, schedule: Q01DX005 (ip), vehicle: saline with Tween-80) was 103 % of control; the T/C under setting [5] was 101 % of control and 107 % of control; the T/C under setting [6] was 100 % of control; the T/C under setting [7] was 99 % of control.

`COc1ccc(/C=N/Nc2cc(C)nc3cc4c(cc23)OCO4)c2ccccc12`: the T/C is 109 % of control (dose: 1.56 mg/kg/injection, schedule: Q01DX005 (ip), vehicle: Klucel (hydroxypropylcellulose) (HPC)); 100 % of control (dose: 3.12 mg/kg/injection, schedule: Q01DX005 (ip), vehicle: Klucel (hydroxypropylcellulose) (HPC)); 100 % of control and 102 % of control (dose: 6.25 mg/kg/injection, schedule: Q01DX005 (ip), vehicle: Klucel (hydroxypropylcellulose) (HPC)); 110 % of control (dose: 12.5 mg/kg/injection, schedule: Q01DX005 (ip), vehicle: Klucel (hydroxypropylcellulose) (HPC)).

Take `Cc1ccc2c(O)c3c(cc2c1)C(=O)c1c2c(cc(O)c1C3=O)C1(C)OC(O2)C(O)C(N(C)C)C1O` (stereo not given): the T/C (dose: 1.6 mg/kg/injection, schedule: Q01DX009 (ip), vehicle: other) is 97 % of control; the T/C (dose: 3.13 mg/kg/injection, schedule: Q01DX009 (ip), vehicle: other) was 98 % of control; the T/C (dose: 6.25 mg/kg/injection, schedule: Q01DX009 (ip), vehicle: other) is 87 % of control; the T/C (dose: 12.5 mg/kg/injection, schedule: Q01DX009 (ip), vehicle: other) is 116 % of control; the T/C (dose: 25.0 mg/kg/injection, schedule: Q01DX009 (ip), vehicle: other) was 97 % of control.

For the compound `CN1C(=O)C(=CN(C)c2ccccc2)C(=O)N(C)C1=O`, the T/C is 111 % of control (dose: 25.0 mg/kg/injection, schedule: Q04DX003 (ip), vehicle: saline with Tween-80); 112 % of control (dose: 50.0 mg/kg/injection, schedule: Q04DX003 (ip), vehicle: saline with Tween-80); 114 % of control and 96 % of control under setting [3].

As to `CCOC(=O)CN1CCC(C(O)c2cc3ccccc3[nH]2)CC1` (stereo not given), the T/C runs as follows: (dose: 100.0 mg/kg/injection, schedule: Q01DX001 (ip), vehicle: saline) 106 % of control; (dose: 200.0 mg/kg/injection, schedule: Q01DX001 (ip), vehicle: saline) 110 % of control; (dose: 400.0 mg/kg/injection, schedule: Q01DX001 (ip), vehicle: saline) 109 % of control.

As to `O=C(Cc1csc2ccccc12)NCC1CC1`, the T/C under setting [5] is 100 % of control, the T/C under setting [6] is 99 % of control and the T/C under setting [7] was 99 % of control.

With `CNc1ccc2c(cc1=O)C(NC(C)=O)CCc1cc(OC)c(OC)c(OC)c1-2` (stereo not given), the T/C is, setting by setting: (dose: 0.08 mg/kg/injection, schedule: Q01DX009 (ip), vehicle: Klucel (hydroxypropylcellulose) (HPC)) 157 % of control; (dose: 0.12 mg/kg/injection, schedule: Q01DX009 (ip), vehicle: Klucel (hydroxypropylcellulose) (HPC)) 157 % of control; (dose: 0.16 mg/kg/injection, schedule: Q01DX009 (ip), vehicle: Klucel (hydroxypropylcellulose) (HPC)) 174 % of control; (dose: 0.25 mg/kg/injection, schedule: Q01DX009 (ip), vehicle: Klucel (hydroxypropylcellulose) (HPC)) 150 % of control; (dose: 0.32 mg/kg/injection, schedule: Q01DX009 (ip), vehicle: Klucel (hydroxypropylcellulose) (HPC)) 166 % of control.

Regarding `O=S(=O)(CCS(=O)(=O)c1ccccc1)c1ccccc1`, the T/C (dose: 50.0 mg/kg/injection, schedule: Q01DX009 (ip), vehicle: saline with Tween-80) was 92 % of control; the T/C (dose: 100.0 mg/kg/injection, schedule: Q01DX009 (ip), vehicle: saline with Tween-80) was 92 % of control; the T/C (dose: 200.0 mg/kg/injection, schedule: Q01DX009 (ip), vehicle: saline with Tween-80) was 89 % of control.

Consider `CN1CCC(=C2c3ccccc3CC(O)c3sccc32)CC1` (stereo not given), for which the T/C is, setting by setting: under setting [3], 94 % of control; under setting [4], 98 % of control.

With `CC(c1ccc(OCc2ccccc2)cc1)c1cc2c(cc1OCCO)OCO2` (stereo not given), the T/C reads like this: (dose: 50.0 mg/kg/injection, schedule: Q01DX005 (ip), vehicle: saline with Tween-80) 98 % of control; (dose: 100.0 mg/kg/injection, schedule: Q01DX005 (ip), vehicle: saline with Tween-80) 100 % of control; (dose: 200.0 mg/kg/injection, schedule: Q01DX005 (ip), vehicle: saline with Tween-80) 100 % of control.

As for `CC(=O)OCCOCNC(=S)N/N=C/c1ccccn1`, the T/C under setting [5] was 115 % of control.

In the case of `CC(=O)NC1=C(O)C2C(c3ccccc3)C(C#N)C(=O)N2C1=O` (stereo not given), the T/C is 100 % of control (dose: 100.0 mg/kg/injection, schedule: Q04DX002 (ip), vehicle: saline with Tween-80); 100 % of control (dose: 200.0 mg/kg/injection, schedule: Q04DX002 (ip), vehicle: saline with Tween-80); 95 % of control (dose: 400.0 mg/kg/injection, schedule: Q04DX002 (ip), vehicle: saline with Tween-80).

On to `Cc1ccccc1/C(=C/c1ccc([N+](=O)[O-])cc1)C(=O)O`, for which the T/C was 108 % of control under setting [8], 108 % of control under setting [9] and 112 % of control under setting [10].

As to `O=S(=O)(Nc1ncccn1)c1ccc(NCc2c3ccccc3nc3ccccc23)cc1`, the T/C under setting [1] is 96 % of control; the T/C under setting [2] was 99 % of control; the T/C (dose: 50.0 mg/kg/injection, schedule: Q04DX002 (ip), vehicle: Klucel (hydroxypropylcellulose) (HPC)) is 87 % of control and 96 % of control; the T/C (dose: 100.0 mg/kg/injection, schedule: Q04DX002 (ip), vehicle: Klucel (hydroxypropylcellulose) (HPC)) was 87 % of control and 90 % of control; the T/C (dose: 200.0 mg/kg/injection, schedule: Q04DX002 (ip), vehicle: Klucel (hydroxypropylcellulose) (HPC)) was 96 % of control; the T/C (dose: 400.0 mg/kg/injection, schedule: Q04DX002 (ip), vehicle: Klucel (hydroxypropylcellulose) (HPC)) is 91 % of control and 96 % of control.

Turning to `O[B]c1nc2ccccc2c2ccccc12`, the T/C is, setting by setting: under setting [8], 105 % of control; under setting [9], 102 % of control; under setting [10], 119 % of control.

On to `COc1nccn2c(C)nnc12`, for which the T/C runs as follows: under setting [11], 100 % of control; under setting [12], 100 % of control.

With `CS(=O)(=O)OCCN(CCOS(C)(=O)=O)c1ccc(N=Nc2ccccc2C(=O)O)cc1`, the T/C (dose: 0.78 mg/kg/injection, schedule: Q01DX009 (ip), vehicle: Klucel (hydroxypropylcellulose) (HPC)) is 168 % of control; the T/C (dose: 1.56 mg/kg/injection, schedule: Q01DX009 (ip), vehicle: Klucel (hydroxypropylcellulose) (HPC)) was 187 % of control and 206 % of control; the T/C (dose: 3.12 mg/kg/injection, schedule: Q01DX009 (ip), vehicle: Klucel (hydroxypropylcellulose) (HPC)) was 233 % of control; the T/C (dose: 3.13 mg/kg/injection, schedule: Q01DX009 (ip), vehicle: Klucel (hydroxypropylcellulose) (HPC)) is 242 % of control; the T/C (dose: 6.25 mg/kg/injection, schedule: Q01DX009 (ip), vehicle: Klucel (hydroxypropylcellulose) (HPC)) was 107 % of control and 213 % of control.

Regarding `Cc1ccc(S(=O)(=O)N/N=C/c2c(Cl)n(C)c3ccccc23)cc1`, the T/C under setting [11] was 91 % of control; the T/C under setting [12] was 97 % of control; the T/C (dose: 400.0 mg/kg/injection, schedule: Q01DX001 (ip), vehicle: Klucel (hydroxypropylcellulose) (HPC)) is 100 % of control.
